# Results published in US10681909B2, “Herbicidal triazoles” (FMC Corporation, priority 2014, dated 2020).
# Tests used:
# pigweed [1] = assay: Test A preemergence; assay type: in vivo, Amaranthus retroflexus; settings: 0 to 100 scale (0 no effect, 100 complete control)
# Outline: (§1)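 Pre- and postemergence spray tests in a loam soil–sand mixture: seeded soil received a directed spray, while established seedlings 2–10 cm high at the one- to two-leaf stage were treated over the top. Compounds were carried in non-phytotoxic solvent with surfactant.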
# barnyardgrass = assay: Test B flooded paddy test; assay type: in vivo, Echinochloa crus-galli; settings: applied to paddy water at 2-leaf stage, visual rating after 13 to 15 d, scale 0 (no effect) to 100 (complete control); for Plant response rating, Barnyardgrass, Flood: 250 g ai/ha
# Outline: (§2)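 Pots were flooded to 3 cm above the soil at treatment, and compounds were applied directly into the paddy water. That depth was held throughout. After 13 to 15 d in a greenhouse, plants were rated visually against untreated controls.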
# corn = assay: Test A postemergence; assay type: in vivo, Zea mays; settings: 0 to 100 scale (0 no effect, 100 complete control), approx. 10 d
# Outline: as §1
# rice = assay: Test B flooded paddy test; assay type: in vivo, Oryza sativa; settings: applied to paddy water at 2-leaf stage, visual rating after 13 to 15 d, scale 0 (no effect) to 100 (complete control); for Plant response rating, Rice, Flood: 250 g ai/ha
# Outline: as §2
# wheat = assay: Test A preemergence; assay type: in vivo, Triticum aestivum; settings: Triticum aestivum, pre-emergence, 240 h, 0 to 100 scale (0 no effect, 100 complete control), read-out: Plant response rating, Wheat
# Outline: as §1
# ducksalad = assay: Test B flooded paddy test; assay type: in vivo, Heteranthera limosa; settings: applied to paddy water at 2-leaf stage, visual rating after 13 to 15 d, scale 0 (no effect) to 100 (complete control); for Plant response rating, Ducksalad, Flood: 250 g ai/ha
# Outline: as §2
# wheat (winter wheat) = assay: Test C postemergence; assay type: in vivo, Triticum aestivum
# Outline: (§3)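 Preemergence: seeds sown in loam soil–sand blend and treated with test chemicals formulated in a non-phytotoxic solvent mixture containing a surfactant. Postemergence: plants grown in peat moss/vermiculite-based medium and sprayed with the same formulation at 2 to 18 cm height (1- to 4-leaf stage).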
# oat, wild = assay: Test C postemergence; assay type: in vivo, Avena fatua
# Outline: as §3
# ragweed = assay: Test C postemergence; assay type: in vivo, Ambrosia elatior
# Outline: as §3
# soybean = assay: Test C postemergence; assay type: in vivo, Glycine max
# Outline: as §3
# pigweed [2] = assay: Test C postemergence; assay type: in vivo, Amaranthus retroflexus
# Outline: as §3
# chickweed = assay: Test C postemergence; assay type: in vivo, Stellaria media
# Outline: as §3
# lambsquarters = assay: Test C postemergence; assay type: in vivo, Chenopodium album
# Outline: as §3
# foxtail, giant = assay: Test C postemergence; assay type: in vivo, Setaria faberii
# Outline: as §3
compound,measurement,setting,value
"CCn1nc(-c2ccc(F)cc2)nc1C(=O)c1ccnc(C(F)(F)F)c1 [Compound 19, [1-ethyl-3-(4-fluorophenyl)-1H-1,2,4-triazol-5-yl][2-(trifluoromethyl)-4-pyridinyl]methanone]",pest or weed control at 125 g/ha,"pigweed [1]; Amaranthus retroflexus, pre-emergence, 240 h, 125 g ai/ha, read-out: Plant response rating, Pigweed",0%
same,pest or weed control at 500 g/ha,"pigweed [1]; Amaranthus retroflexus, pre-emergence, 240 h, 500 g ai/ha, approx. 10 d, read-out: Plant response rating, Pigweed",0%
same,pest or weed control at 125 g/ha,"barnyardgrass; Echinochloa crus-galli, 360 h, 125 g ai/ha, read-out: Plant response rating, Barnyardgrass, Flood",0%
same,"Corn plant response rating (crop injury, 0 = no effect, 100 = complete kill) at 125 g/ha","corn; Zea mays, post-emergence, 240 h, 125 g ai/ha",0%
same,"Corn plant response rating (crop injury, 0 = no effect, 100 = complete kill) at 500 g/ha","corn; Zea mays, post-emergence, 240 h, 500 g ai/ha",20%
same,plant injury at 125 g/ha,"rice; Oryza sativa, 360 h, 125 g ai/ha, read-out: Plant response rating, Rice, Flood",0%
same,plant injury at 125 g/ha,wheat; 125 g ai/ha,0%
same,plant injury at 500 g/ha,"wheat; 500 g ai/ha, approx. 10 d",0%
same,pest or weed control at 125 g/ha,"ducksalad; Heteranthera limosa, 360 h, 125 g ai/ha, read-out: Plant response rating, Ducksalad, Flood",0%
COc1nc(-c2ccccc2)nn1Cc1ccnc(C(F)(F)F)c1 [Compound 32],"Plant response rating, Pigweed",pigweed [1]; 125 g ai/ha,100
same,"Plant response rating, Pigweed","pigweed [1]; 500 g ai/ha, approx. 10 d",100
same,Plant response rating (scale of 0 to 100 where 0 is no effect and 100 is complete control),wheat (winter wheat); 31 g ai/ha,0
same,Plant response rating (scale of 0 to 100 where 0 is no effect and 100 is complete control),wheat (winter wheat); 62 g ai/ha,0
same,Plant response rating (scale of 0 to 100 where 0 is no effect and 100 is complete control),wheat (winter wheat); 125 g ai/ha,0
same,Plant response rating (scale of 0 to 100 where 0 is no effect and 100 is complete control),wheat (winter wheat); 250 g ai/ha,0
same,Plant response rating (scale of 0 to 100 where 0 is no effect and 100 is complete control),"oat, wild; 31 g ai/ha",0
same,Plant response rating (scale of 0 to 100 where 0 is no effect and 100 is complete control),"oat, wild; 62 g ai/ha",5
same,Plant response rating (scale of 0 to 100 where 0 is no effect and 100 is complete control),"oat, wild; 125 g ai/ha",5
same,Plant response rating (scale of 0 to 100 where 0 is no effect and 100 is complete control),"oat, wild; 250 g ai/ha",10
same,Plant response rating (scale of 0 to 100 where 0 is no effect and 100 is complete control),ragweed; 31 g ai/ha,35
same,Plant response rating (scale of 0 to 100 where 0 is no effect and 100 is complete control),ragweed; 62 g ai/ha,70
same,Plant response rating (scale of 0 to 100 where 0 is no effect and 100 is complete control),ragweed; 125 g ai/ha,60
same,Plant response rating (scale of 0 to 100 where 0 is no effect and 100 is complete control),ragweed; 250 g ai/ha,60
same,"Plant response rating, Barnyardgrass, Flood",barnyardgrass,0
same,Plant response rating (scale of 0 to 100 where 0 is no effect and 100 is complete control),soybean; 31 g ai/ha,20
same,Plant response rating (scale of 0 to 100 where 0 is no effect and 100 is complete control),soybean; 62 g ai/ha,25
same,Plant response rating (scale of 0 to 100 where 0 is no effect and 100 is complete control),soybean; 125 g ai/ha,30
same,Plant response rating (scale of 0 to 100 where 0 is no effect and 100 is complete control),soybean; 250 g ai/ha,35
same,"Plant response rating, Corn",corn; 125 g ai/ha,10
same,"Plant response rating, Corn",corn; 500 g ai/ha,30
same,"Plant response rating, Rice, Flood",rice,0
same,Plant response rating (scale of 0 to 100 where 0 is no effect and 100 is complete control),pigweed [2]; 31 g ai/ha,98
same,Plant response rating (scale of 0 to 100 where 0 is no effect and 100 is complete control),pigweed [2]; 62 g ai/ha,95
same,Plant response rating (scale of 0 to 100 where 0 is no effect and 100 is complete control),pigweed [2]; 125 g ai/ha,98
same,Plant response rating (scale of 0 to 100 where 0 is no effect and 100 is complete control),pigweed [2]; 250 g ai/ha,98
same,Plant response rating (scale of 0 to 100 where 0 is no effect and 100 is complete control),chickweed; 31 g ai/ha,10
same,Plant response rating (scale of 0 to 100 where 0 is no effect and 100 is complete control),chickweed; 62 g ai/ha,10
same,Plant response rating (scale of 0 to 100 where 0 is no effect and 100 is complete control),chickweed; 125 g ai/ha,55
same,Plant response rating (scale of 0 to 100 where 0 is no effect and 100 is complete control),chickweed; 250 g ai/ha,50
same,Plant response rating (scale of 0 to 100 where 0 is no effect and 100 is complete control),lambsquarters; 31 g ai/ha,100
same,Plant response rating (scale of 0 to 100 where 0 is no effect and 100 is complete control),lambsquarters; 62 g ai/ha,95
same,Plant response rating (scale of 0 to 100 where 0 is no effect and 100 is complete control),lambsquarters; 125 g ai/ha,100
same,Plant response rating (scale of 0 to 100 where 0 is no effect and 100 is complete control),lambsquarters; 250 g ai/ha,98
same,Plant response rating (scale of 0 to 100 where 0 is no effect and 100 is complete control),"foxtail, giant; 31 g ai/ha",10
same,Plant response rating (scale of 0 to 100 where 0 is no effect and 100 is complete control),"foxtail, giant; 62 g ai/ha",10
same,Plant response rating (scale of 0 to 100 where 0 is no effect and 100 is complete control),"foxtail, giant; 125 g ai/ha",10
same,Plant response rating (scale of 0 to 100 where 0 is no effect and 100 is complete control),"foxtail, giant; 250 g ai/ha",10
same,"Plant response rating, Ducksalad, Flood",ducksalad,30
CCCOc1nc(-c2ccccc2)nn1Cc1ccnc(C(F)(F)F)c1 [Compound 33],"Plant response rating, Pigweed",pigweed [1]; 125 g ai/ha,90
same,"Plant response rating, Pigweed","pigweed [1]; 500 g ai/ha, approx. 10 d",90
same,Plant response rating (scale of 0 to 100 where 0 is no effect and 100 is complete control),wheat (winter wheat); 31 g ai/ha,5
same,Plant response rating (scale of 0 to 100 where 0 is no effect and 100 is complete control),wheat (winter wheat); 62 g ai/ha,5
same,Plant response rating (scale of 0 to 100 where 0 is no effect and 100 is complete control),wheat (winter wheat); 125 g ai/ha,5
same,Plant response rating (scale of 0 to 100 where 0 is no effect and 100 is complete control),wheat (winter wheat); 250 g ai/ha,5
same,Plant response rating (scale of 0 to 100 where 0 is no effect and 100 is complete control),"oat, wild; 31 g ai/ha",10
same,Plant response rating (scale of 0 to 100 where 0 is no effect and 100 is complete control),"oat, wild; 62 g ai/ha",10
same,Plant response rating (scale of 0 to 100 where 0 is no effect and 100 is complete control),"oat, wild; 125 g ai/ha",20
same,Plant response rating (scale of 0 to 100 where 0 is no effect and 100 is complete control),"oat, wild; 250 g ai/ha",25
same,Plant response rating (scale of 0 to 100 where 0 is no effect and 100 is complete control),ragweed; 31 g ai/ha,35
same,Plant response rating (scale of 0 to 100 where 0 is no effect and 100 is complete control),ragweed; 62 g ai/ha,35
same,Plant response rating (scale of 0 to 100 where 0 is no effect and 100 is complete control),ragweed; 125 g ai/ha,40
same,Plant response rating (scale of 0 to 100 where 0 is no effect and 100 is complete control),ragweed; 250 g ai/ha,75
same,"Plant response rating, Barnyardgrass, Flood",barnyardgrass,0
same,Plant response rating (scale of 0 to 100 where 0 is no effect and 100 is complete control),soybean; 31 g ai/ha,25
same,Plant response rating (scale of 0 to 100 where 0 is no effect and 100 is complete control),soybean; 62 g ai/ha,35
same,Plant response rating (scale of 0 to 100 where 0 is no effect and 100 is complete control),soybean; 125 g ai/ha,55
same,Plant response rating (scale of 0 to 100 where 0 is no effect and 100 is complete control),soybean; 250 g ai/ha,65
same,"Plant response rating, Corn",corn; 125 g ai/ha,20
same,"Plant response rating, Corn",corn; 500 g ai/ha,30
same,"Plant response rating, Rice, Flood",rice,0
same,Plant response rating (scale of 0 to 100 where 0 is no effect and 100 is complete control),pigweed [2]; 31 g ai/ha,95
same,Plant response rating (scale of 0 to 100 where 0 is no effect and 100 is complete control),pigweed [2]; 62 g ai/ha,90
same,Plant response rating (scale of 0 to 100 where 0 is no effect and 100 is complete control),pigweed [2]; 125 g ai/ha,98
same,Plant response rating (scale of 0 to 100 where 0 is no effect and 100 is complete control),pigweed [2]; 250 g ai/ha,98
same,Plant response rating (scale of 0 to 100 where 0 is no effect and 100 is complete control),chickweed; 31 g ai/ha,55
same,Plant response rating (scale of 0 to 100 where 0 is no effect and 100 is complete control),chickweed; 62 g ai/ha,60
same,Plant response rating (scale of 0 to 100 where 0 is no effect and 100 is complete control),chickweed; 125 g ai/ha,60
same,Plant response rating (scale of 0 to 100 where 0 is no effect and 100 is complete control),chickweed; 250 g ai/ha,80
same,Plant response rating (scale of 0 to 100 where 0 is no effect and 100 is complete control),lambsquarters; 31 g ai/ha,80
same,Plant response rating (scale of 0 to 100 where 0 is no effect and 100 is complete control),lambsquarters; 62 g ai/ha,85
same,Plant response rating (scale of 0 to 100 where 0 is no effect and 100 is complete control),lambsquarters; 125 g ai/ha,85
same,Plant response rating (scale of 0 to 100 where 0 is no effect and 100 is complete control),lambsquarters; 250 g ai/ha,90
same,Plant response rating (scale of 0 to 100 where 0 is no effect and 100 is complete control),"foxtail, giant; 31 g ai/ha",10
same,Plant response rating (scale of 0 to 100 where 0 is no effect and 100 is complete control),"foxtail, giant; 62 g ai/ha",10
same,Plant response rating (scale of 0 to 100 where 0 is no effect and 100 is complete control),"foxtail, giant; 125 g ai/ha",15
same,Plant response rating (scale of 0 to 100 where 0 is no effect and 100 is complete control),"foxtail, giant; 250 g ai/ha",15
same,"Plant response rating, Ducksalad, Flood",ducksalad,30
